Here are results for 10 compounds from patent US11130780B2, “Inhibitors of growth factor activation enzymes” (Washington University, priority 2015, dated 2021).

As usually defined, the IC50 is the concentration needed to halve the response being measured. In general, Ki refers to the equilibrium dissociation constant of an inhibitor or competing ligand from its target.

Holding throughout (format): biochemical
In one assay the target is T1, HGFA (Homo sapiens, UniProt Q04756).
T1 construct: His6 tag (N); seven amino acid spacer and seven amino acid TEV cleavage site (N); Honey Bee melittin signal peptide (N); made in house; host or cells: High 5 insect cells (baculovirus; virus raised in Sf9)
T1 sequence (Q04756 373-655): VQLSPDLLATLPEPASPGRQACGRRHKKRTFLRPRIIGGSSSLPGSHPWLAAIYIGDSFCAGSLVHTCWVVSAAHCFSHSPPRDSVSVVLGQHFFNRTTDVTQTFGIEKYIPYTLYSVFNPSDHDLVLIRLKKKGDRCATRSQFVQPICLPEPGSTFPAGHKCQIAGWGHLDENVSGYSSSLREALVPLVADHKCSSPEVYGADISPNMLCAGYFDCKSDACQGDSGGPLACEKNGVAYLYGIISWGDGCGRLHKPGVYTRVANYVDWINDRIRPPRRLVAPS
Description: Chromogenic kinetic enzyme inhibitor assay of HGFA. The conditions noted are these: Table 4.1; chromogenic substrate Pefachrome FVIIa. From the text:
This PCR product was cloned into the SfoI-HindIII sites of a modified pFastBac HT baculovirus expression vector (Addgene, Cambridge, Mass.). This vector contains a six amino His tag followed by a seven amino spacer and a seven amino acid TEV cleavage site placed immediately downstream of the Honey Bee melittin signal peptide. Using a modified Bac to Bac Expression System (Life Technologies, Carlsbad, Calif.), recombinant HGFA bacmids were obtained by transforming DH10Bac Escherichia coli cells. To obtain HGFA containing baculovirus, purified bacmids were transfected into Sf9 insect cells. After 5 days in culture at 27° C., media was harvested from transfected Sf9 cells. This media was used to prepare baculovirus infected insect cells (BIICs). These BIIICs were used to infect High 5 insect cells. Four days post infection, media was harvested and recombinant protein prepared as follows. Media was chilled to 4° C. and spun at 4000×g for 20 minutes (all subsequent steps were performed at 4° C. unless noted). […] Concentrated media was then buffer exchanged in two steps, five volumes of 50 mM Na-phosphate, 500 mM NaCl, pH 6.2, followed by five volumes of 50 mM Na-phosphate, 500 mM NaCl, pH 7.5. […] After mixing this slurry for 12 hours, nickel agarose beads were allowed to settle by gravity and then loaded into a column. Beads were washed with buffer (25 mM Na-phosphate, 500 mM NaCl, 25 mM imidazole, pH 8) and the bound protein eluted using (25 mM Na-phosphate, 500 mM NaCl, 250 mM imidazole, pH 8). Using a Amicon Ultra-4 Centrifugal filters (#UFC801008, Merck Millipore, Ltd., Tullagreen, Ireland), peak protein fractions were concentrated and run over a Superdex-200 10/300 GL column (GE Healthcare Life Sciences, Piscataway, N.J.) in 10 mM Tris, 200 mM NaCl, 0.2 mM EDTA, pH 8. HGFA containing fractions were pooled, concentrated, made 50% glycerol, and stored at minus 20° C. Protein was quantitated using a modified Lowry protein assay (#500-0006, Bio-Rad Laboratories, Hercules, Calif.).
Using Gen 5 2.00 software program (Biotek, Winnoski, Vt.), a four parameter curve fit was used to determine the inhibitor IC50s from a plot of the mean reaction velocity versus the inhibitor concentration. The IC50 values represent the average of three separate experimental determinations.

The next assay has as its target T2, matriptase (Homo sapiens, UniProt Q9Y5Y6).
T2 construct: Charles Craik, UCSF (obtained from another laboratory)
T2 sequence (Q9Y5Y6 615-855 limits assumed): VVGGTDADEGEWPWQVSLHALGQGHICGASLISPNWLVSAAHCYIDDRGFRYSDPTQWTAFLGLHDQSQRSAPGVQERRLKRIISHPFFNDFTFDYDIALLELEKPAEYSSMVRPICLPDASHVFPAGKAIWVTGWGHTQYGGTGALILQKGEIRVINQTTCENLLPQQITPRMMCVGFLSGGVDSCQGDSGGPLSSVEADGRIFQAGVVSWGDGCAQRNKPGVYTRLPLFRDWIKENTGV
Nature of the assay: Fluorescent kinetic enzyme inhibitor assay of matriptase. Conditions: for IC50: Table 4.1; for Ki: Table 4.2, Boc-QAR-AMC substrate. In short, it runs like this: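 Fluorescence (ex 380/em 460 nm) followed kinetically at room temperature; IC50 from four-parameter fit of mean velocity versus concentration, averaged over three experiments.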

The target in a further assay is Factor Xa (Homo sapiens, UniProt P00742). Description: Chromogenic kinetic enzyme assay of Factor Xa. The conditions noted are these: Table 4.1; read-out: Factor Xa Ki. In short, it runs like this:
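Recombinant human thrombin (0.15 nM) or Factor Xa (0.35 nM) was mixed with 11-point inhibitor dilutions (0–20 μM, 2% DMSO) in TNC buffer, pH 8. Kinetic absorbance at 405 nm gave velocities. IC50 came from a four-parameter fit and Ki from Cheng–Prusoff.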

Factor Xa, sequence (P00742 235-488 limits assumed): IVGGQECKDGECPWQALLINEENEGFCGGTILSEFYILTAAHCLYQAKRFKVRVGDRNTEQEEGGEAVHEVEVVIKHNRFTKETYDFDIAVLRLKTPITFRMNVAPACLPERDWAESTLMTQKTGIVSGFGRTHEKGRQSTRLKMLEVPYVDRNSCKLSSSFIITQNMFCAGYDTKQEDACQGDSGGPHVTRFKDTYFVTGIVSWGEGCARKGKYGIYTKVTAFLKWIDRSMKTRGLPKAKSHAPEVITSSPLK
Factor Xa, sequence (P00742 41-179 partner limits assumed): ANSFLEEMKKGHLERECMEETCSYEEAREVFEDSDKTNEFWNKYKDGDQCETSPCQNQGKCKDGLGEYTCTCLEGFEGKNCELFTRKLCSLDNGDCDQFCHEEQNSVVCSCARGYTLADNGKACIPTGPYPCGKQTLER

Consider `CC(=O)N[C@@H](CCCCN)C(=O)N[C@@H](CCC(N)=O)C(=O)N[C@@H](CC(C)C)C(=O)N[C@@H](CCCNC(=N)N)C(=O)c1nccs1` [Compound 5, Ac-KQLR(SEQ ID NO: 1)-kt], for which the IC50 against HGFA stood at 445 nM. Moreover, at matriptase, the “fold more potent for matriptase versus HGFA” value amounted to 50 fold, the IC50 was determined as 5 nM and the Ki stood at 1.6 nM. For the same compound, the Ki on Factor Xa was determined as 170 nM.

`CC(=O)N[C@@H](CCCCN)C(=O)N[C@@H](CCC(N)=O)C(=O)N[C@@H](Cc1ccccc1)C(=O)N[C@@H](CCCNC(=N)N)C(=O)c1nccs1` [Compound 5c, Ac-KQFR(SEQ ID NO: 4)-kt] yielded an IC50 against HGFA of 470 nM. Further, the Ki at matriptase came out at 0.69 nM; at Factor Xa, 78.8 nM.

In the case of `CC(=O)N[C@@H](CCCNC(=N)N)C(=O)N[C@@H](CCC(N)=O)C(=O)N[C@@H](CC(C)C)C(=O)N[C@@H](CCCNC(=N)N)C(=O)c1nccs1` [Compound 5e, Ac-RQLR(SEQ ID NO: 6)-kt], the IC50 against HGFA turned out to be 270 nM; at matriptase, 1 nM. Further, the inhibition constant (Ki) at Factor Xa was 8.1 nM.

For the compound `CC(=O)N[C@@H](CCCCN)C(=O)N[C@@H](CCCNC(=N)N)C(=O)N[C@@H](CC(C)C)C(=O)N[C@@H](CCCNC(=N)N)C(=O)c1nccs1` [Compound 5g, Ac-KRLR(SEQ ID NO: 8)-kt], the IC50 against HGFA worked out at 225 nM; at matriptase, 14 nM.

In the case of `CC(=O)N[C@@H](Cc1c[nH]c2ccccc12)C(=O)N[C@@H](CCCNC(=N)N)C(=O)N[C@@H](CC(C)C)C(=O)N[C@@H](CCCNC(=N)N)C(=O)c1nccs1` [Compound 5h, Ac-WRLR(SEQ ID NO: 9)-kt], the concentration for half-maximal inhibition (IC50) is 275 nM against HGFA and 31 nM at matriptase.

`CC(=O)N[C@@H](CO)C(=O)N[C@@H](CCCCN)C(=O)N[C@@H](CC(C)C)C(=O)N[C@@H](CCCNC(=N)N)C(=O)c1nccs1` [Compound 6, Ac-SKLR(SEQ ID NO: 10)-kt]: at HGFA, the IC50 came out at 560 nM. In addition, at matriptase, the “fold more potent for matriptase versus HGFA” value is listed as “only slightly more potent” and the IC50 came to 48 nM. At Factor Xa, the Ki was 3060 nM.

Consider `CC(=O)N[C@@H](CO)C(=O)N[C@@H](CCCCN)C(=O)N[C@@H](Cc1ccccc1)C(=O)N[C@@H](CCCNC(=N)N)C(=O)c1nccs1` [Compound 6c, Ac-SKFR(SEQ ID NO: 13)-kt], for which the results for the IC50 against HGFA and at matriptase were 520 nM and 34 nM, respectively. Also, the Ki at Factor Xa was found to be 530 nM.

As for `CC(=O)N[C@@H](CO)C(=O)N[C@@H](CCCNC(=N)N)C(=O)N[C@@H](CC(C)C)C(=O)N[C@@H](CCCNC(=N)N)C(=O)c1nccs1` [Compound 6e, Ac-SRLR(SEQ ID NO: 15)-kt], the values for the IC50 against HGFA and on matriptase were 303 nM and 24 nM, respectively.

Turning to `CC(=O)N[C@@H](CO)C(=O)N[C@@H](Cc1c[nH]c2ccccc12)C(=O)N[C@@H](CC(C)C)C(=O)N[C@@H](CCCNC(=N)N)C(=O)c1nccs1` [Compound 6g, Ac-SWLR(SEQ ID NO: 17)-kt], the values for the IC50 on HGFA and on matriptase were 435 nM and 175 nM, respectively. On Factor Xa, the Ki is 759 nM.

On to `N=C(N)c1ccc2cc(OC(=O)c3ccc(N=C(N)N)cc3)ccc2c1` [Nafamostat, reference compound], for which the IC50 against HGFA amounted to 800 nM.
